Experimental data taken from patent publication US20120270237A9, “METHODS FOR THE IDENTIFICATION OF KINASE INTERACTING MOLECULES AND FOR THE PURIFICATION OF KINASE PROTEINS” (Cellzone AG, priority 2009, published 2012).

Tests used:
Assay in all cases: Kinobeads competition binding, HeLa Placenta lysate mix
Design in all cases: endogenous in cells
Conditions in all cases: 10 μM free compound
[1] = target: IRAK3 (Homo sapiens, UniProt Q9Y616)
Outline: (§1)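 Two lysate aliquots, one given 10 μM compound and one DMSO, are each captured on compound-derivatized beads. Eluates are gel-separated, trypsinized, iTRAQ-labeled and combined for tandem MS quantification.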

[2] = target: T1, TAO3 (Homo sapiens, UniProt Q9H2K8)
T1 sequence (Q9H2K8 1-898): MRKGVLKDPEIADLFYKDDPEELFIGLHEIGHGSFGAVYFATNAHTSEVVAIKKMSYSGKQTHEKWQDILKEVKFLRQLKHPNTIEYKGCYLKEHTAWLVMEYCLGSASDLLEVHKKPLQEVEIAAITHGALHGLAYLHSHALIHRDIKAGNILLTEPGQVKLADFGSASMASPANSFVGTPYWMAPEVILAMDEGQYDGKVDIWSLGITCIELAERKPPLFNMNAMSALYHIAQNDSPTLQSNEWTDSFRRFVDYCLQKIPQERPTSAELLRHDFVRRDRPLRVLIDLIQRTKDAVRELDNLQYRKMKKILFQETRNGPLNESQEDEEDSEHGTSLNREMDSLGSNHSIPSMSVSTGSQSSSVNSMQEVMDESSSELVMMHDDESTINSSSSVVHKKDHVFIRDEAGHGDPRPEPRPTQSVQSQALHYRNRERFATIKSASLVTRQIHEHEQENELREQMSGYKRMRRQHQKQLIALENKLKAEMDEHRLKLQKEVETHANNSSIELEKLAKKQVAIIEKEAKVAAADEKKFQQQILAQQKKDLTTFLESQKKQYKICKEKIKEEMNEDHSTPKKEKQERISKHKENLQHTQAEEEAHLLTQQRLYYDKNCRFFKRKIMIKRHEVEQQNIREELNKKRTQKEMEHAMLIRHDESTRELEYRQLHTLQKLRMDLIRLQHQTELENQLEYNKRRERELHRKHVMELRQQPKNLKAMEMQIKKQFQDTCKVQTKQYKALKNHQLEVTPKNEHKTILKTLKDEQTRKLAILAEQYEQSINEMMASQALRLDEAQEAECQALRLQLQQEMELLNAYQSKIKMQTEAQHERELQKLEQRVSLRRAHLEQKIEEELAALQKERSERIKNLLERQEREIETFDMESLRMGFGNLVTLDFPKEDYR
Outline: as §1

[3] = target: T2, NEK9 (Homo sapiens, UniProt Q8TD19)
T2 sequence (Q8TD19 1-979): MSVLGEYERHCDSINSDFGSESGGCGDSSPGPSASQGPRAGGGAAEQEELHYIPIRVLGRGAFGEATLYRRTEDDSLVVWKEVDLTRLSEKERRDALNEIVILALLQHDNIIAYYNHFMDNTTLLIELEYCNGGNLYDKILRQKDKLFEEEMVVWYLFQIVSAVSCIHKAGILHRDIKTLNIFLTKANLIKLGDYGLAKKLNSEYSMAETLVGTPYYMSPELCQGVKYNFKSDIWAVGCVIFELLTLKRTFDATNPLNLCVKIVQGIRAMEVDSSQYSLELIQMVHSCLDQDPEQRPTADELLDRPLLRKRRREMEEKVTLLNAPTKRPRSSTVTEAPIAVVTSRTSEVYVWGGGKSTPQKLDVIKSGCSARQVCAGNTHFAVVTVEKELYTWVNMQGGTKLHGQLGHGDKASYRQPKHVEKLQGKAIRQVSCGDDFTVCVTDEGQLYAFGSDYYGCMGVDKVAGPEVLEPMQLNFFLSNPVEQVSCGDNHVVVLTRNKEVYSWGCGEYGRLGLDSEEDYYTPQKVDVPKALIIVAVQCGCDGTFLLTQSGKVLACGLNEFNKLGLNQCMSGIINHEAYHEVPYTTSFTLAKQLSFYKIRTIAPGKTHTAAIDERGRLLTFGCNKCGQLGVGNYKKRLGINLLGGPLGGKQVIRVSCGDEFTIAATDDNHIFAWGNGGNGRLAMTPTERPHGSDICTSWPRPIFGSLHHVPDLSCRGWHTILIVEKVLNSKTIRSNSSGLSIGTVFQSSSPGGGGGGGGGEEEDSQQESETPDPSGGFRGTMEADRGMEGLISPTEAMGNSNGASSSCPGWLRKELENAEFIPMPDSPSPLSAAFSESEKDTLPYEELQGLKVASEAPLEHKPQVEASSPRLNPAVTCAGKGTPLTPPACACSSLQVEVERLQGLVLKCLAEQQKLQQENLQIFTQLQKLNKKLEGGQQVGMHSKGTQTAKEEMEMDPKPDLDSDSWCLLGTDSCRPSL
Outline: as §1

[4] = target: CK2a1 (Homo sapiens, UniProt P68400)
Sequence of CK2a1 (P68400 whole entry): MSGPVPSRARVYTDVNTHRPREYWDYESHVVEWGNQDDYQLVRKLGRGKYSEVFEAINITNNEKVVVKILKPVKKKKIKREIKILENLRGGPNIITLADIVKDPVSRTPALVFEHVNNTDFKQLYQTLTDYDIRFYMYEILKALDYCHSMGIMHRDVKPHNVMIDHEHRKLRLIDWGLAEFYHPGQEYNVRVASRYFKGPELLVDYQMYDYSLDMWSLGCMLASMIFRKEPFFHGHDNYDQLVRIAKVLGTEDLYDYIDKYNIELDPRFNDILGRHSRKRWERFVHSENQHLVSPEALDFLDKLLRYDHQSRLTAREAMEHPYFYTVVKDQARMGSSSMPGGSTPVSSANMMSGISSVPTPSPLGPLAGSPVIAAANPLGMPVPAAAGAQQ
Outline: as §1

[5] = target: T3, PIP5K2A (Homo sapiens, UniProt P48426)
T3 sequence (P48426 1-406): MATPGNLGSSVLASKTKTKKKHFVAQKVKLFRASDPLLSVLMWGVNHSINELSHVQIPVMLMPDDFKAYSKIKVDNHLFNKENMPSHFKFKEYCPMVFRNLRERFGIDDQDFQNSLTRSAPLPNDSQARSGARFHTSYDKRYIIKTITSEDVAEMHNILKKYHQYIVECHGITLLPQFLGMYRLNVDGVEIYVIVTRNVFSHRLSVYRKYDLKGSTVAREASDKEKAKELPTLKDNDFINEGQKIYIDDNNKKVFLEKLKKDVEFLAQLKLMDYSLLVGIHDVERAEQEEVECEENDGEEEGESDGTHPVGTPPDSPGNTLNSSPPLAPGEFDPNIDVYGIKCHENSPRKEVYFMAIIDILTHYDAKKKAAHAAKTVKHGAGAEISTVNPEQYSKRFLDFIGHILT
Outline: as §1

Sequence of IRAK3 (Q9Y616 whole entry): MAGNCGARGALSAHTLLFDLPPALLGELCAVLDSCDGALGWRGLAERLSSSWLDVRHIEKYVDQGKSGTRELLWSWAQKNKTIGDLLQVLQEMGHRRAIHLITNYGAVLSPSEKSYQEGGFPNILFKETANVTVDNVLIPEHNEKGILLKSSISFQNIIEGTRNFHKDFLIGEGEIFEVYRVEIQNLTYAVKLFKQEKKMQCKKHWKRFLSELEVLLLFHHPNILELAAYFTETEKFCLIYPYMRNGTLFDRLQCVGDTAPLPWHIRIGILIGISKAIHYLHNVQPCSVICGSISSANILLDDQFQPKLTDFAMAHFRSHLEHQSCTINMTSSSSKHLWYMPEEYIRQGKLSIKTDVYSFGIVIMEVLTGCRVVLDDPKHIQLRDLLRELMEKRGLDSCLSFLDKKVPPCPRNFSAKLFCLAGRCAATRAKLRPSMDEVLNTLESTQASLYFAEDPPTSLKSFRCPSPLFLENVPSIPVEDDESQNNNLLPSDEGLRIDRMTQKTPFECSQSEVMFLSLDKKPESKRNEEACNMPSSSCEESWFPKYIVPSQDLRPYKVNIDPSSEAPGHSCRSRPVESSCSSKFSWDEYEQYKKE

inhibition at 10 µM [1]: 92%
inhibition at 10 µM [2]: 94.4%
inhibition at 10 µM [4]: 94.6%
inhibition at 10 µM [5]: 95%
SMILES: CS(=O)(=O)Nc1ccccc1Nc1nc(Nc2cccc(OCCN)c2)ncc1Cl [CZC31326, N-(2-(2-(3-(2-aminoethoxy)phenylamino)-5-chloropyrimidin-4-ylamino)phenyl)methanesulfonamide]
inhibition at 10 µM [3]: 89%
